Experimental data reported in doi:10.1101/2025.01.28.635346v1 (bioRxiv, 2025).
Bridge positions count the residues as written; N and C are the ends. Side chains are listed from the residue outwards. Peptide text beside a SMILES is read from it. * marks the point of attachment. Butanoyl(4-(4-I-phenyl)) = O=C(CCCc1ccc(I)cc1)*; PEG2 = NCCOCCOCCC(=O)O

Legend:
[1] = target: VEGFR2 (Homo sapiens, UniProt P35968); experiment: Safetyscan47 Kinases Binding, Inhibitor; conditions: for Emax: read-out: Max Response
[2] = target: HRH1 (Homo sapiens, UniProt P35367); experiment: Safetyscan47 GPCR Calcium Flux, Agonist; format: cell-based; conditions: for Emax: read-out: Max Response
[3] = target: T1, ADRA1A (Homo sapiens, UniProt P35348); experiment: Safetyscan47 GPCR Calcium Flux, Agonist; format: cell-based; conditions: for Emax: read-out: Max Response
T1 sequence (P35348 1-466): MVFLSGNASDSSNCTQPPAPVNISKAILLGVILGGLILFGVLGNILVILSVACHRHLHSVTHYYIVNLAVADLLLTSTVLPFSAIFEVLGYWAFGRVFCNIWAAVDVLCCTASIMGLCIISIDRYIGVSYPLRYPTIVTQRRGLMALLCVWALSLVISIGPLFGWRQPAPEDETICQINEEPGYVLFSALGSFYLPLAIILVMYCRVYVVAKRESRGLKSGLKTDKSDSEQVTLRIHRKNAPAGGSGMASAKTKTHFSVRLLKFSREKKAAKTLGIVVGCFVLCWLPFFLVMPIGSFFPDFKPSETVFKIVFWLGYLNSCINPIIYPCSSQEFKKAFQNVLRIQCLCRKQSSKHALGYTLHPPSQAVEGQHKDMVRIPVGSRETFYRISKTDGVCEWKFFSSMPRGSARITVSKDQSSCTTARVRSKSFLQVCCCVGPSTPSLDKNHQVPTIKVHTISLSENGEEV

[4] = target: ADORA2A (Homo sapiens, UniProt P29274); experiment: Safetyscan47 GPCR Calcium Flux, Antagonist; format: cell-based; conditions: for Emax: read-out: Max Response
[5] = target: carboxypeptidase Y (Saccharomyces cerevisiae, UniProt P00729); experiment: Proteolysis test, carboxypeptidase Y treatment for 4 h, HPLC; format: in vitro ADME
[6] = target: DAT (Homo sapiens, UniProt Q01959); experiment: Safetyscan47 Transporter, Blocker; format: cell-based; conditions: for Emax: read-out: Max Response
[7] = target: T2, HTR3A (Homo sapiens, UniProt P46098); experiment: Safetyscan47 Ion Channel, Opener; format: cell-based; conditions: for Emax: read-out: Max Response
T2 sequence (P46098 24-478): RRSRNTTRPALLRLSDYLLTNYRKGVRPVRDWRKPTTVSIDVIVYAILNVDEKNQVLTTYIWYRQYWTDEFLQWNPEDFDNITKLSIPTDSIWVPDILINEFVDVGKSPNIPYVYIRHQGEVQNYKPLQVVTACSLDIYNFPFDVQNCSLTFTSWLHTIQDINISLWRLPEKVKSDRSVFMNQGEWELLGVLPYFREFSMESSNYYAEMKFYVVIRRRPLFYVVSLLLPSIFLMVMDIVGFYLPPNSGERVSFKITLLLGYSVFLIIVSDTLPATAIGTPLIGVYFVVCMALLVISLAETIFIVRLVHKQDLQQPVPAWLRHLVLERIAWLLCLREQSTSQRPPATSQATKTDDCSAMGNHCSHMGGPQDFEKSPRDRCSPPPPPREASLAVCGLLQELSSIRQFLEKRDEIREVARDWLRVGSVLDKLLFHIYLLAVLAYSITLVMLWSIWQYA

[8] = target: T3, ADRA2A (Homo sapiens, UniProt P08913); experiment: Safetyscan47 GPCR cAMP, Antagonist; format: cell-based; conditions: for Emax: read-out: Max Response
T3 sequence (P08913 1-465): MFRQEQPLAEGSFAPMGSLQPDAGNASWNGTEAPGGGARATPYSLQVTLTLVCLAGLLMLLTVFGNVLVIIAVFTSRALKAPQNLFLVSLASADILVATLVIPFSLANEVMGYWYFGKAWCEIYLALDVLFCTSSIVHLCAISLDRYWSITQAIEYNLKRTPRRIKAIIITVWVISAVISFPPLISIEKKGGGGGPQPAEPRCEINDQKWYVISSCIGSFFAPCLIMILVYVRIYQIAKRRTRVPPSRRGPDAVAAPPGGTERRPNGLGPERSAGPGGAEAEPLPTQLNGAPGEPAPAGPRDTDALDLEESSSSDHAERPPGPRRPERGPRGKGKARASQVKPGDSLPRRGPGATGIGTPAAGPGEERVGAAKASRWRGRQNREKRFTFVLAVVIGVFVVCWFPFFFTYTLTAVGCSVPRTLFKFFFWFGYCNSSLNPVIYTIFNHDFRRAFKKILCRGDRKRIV

[9] = target: PDE3A (Homo sapiens, UniProt Q14432); experiment: Safetyscan47 Non-Kinase Enzymes Enzymatic, Inhibitor; format: biochemical; conditions: for Emax: read-out: Max Response
[10] = target: AChE (Homo sapiens, UniProt P22303); experiment: as above; format: biochemical; conditions: for Emax: read-out: Max Response
[11] = target: integrin αvβ1 (Homo sapiens, UniProt P05556+P06756); experiment: ELISA competition assay, integrin αvβ1; format: binding
[12] = target: CAV1.2 (Homo sapiens, UniProt Q13936); experiment: Safetyscan47 Ion Channel, Blocker; format: cell-based
[13] = target: ADRB1 (Homo sapiens, UniProt P08588); experiment: Safetyscan47 GPCR cAMP, Antagonist; format: cell-based; conditions: for Emax: read-out: Max Response
ADRB1, sequence (P08588 whole entry): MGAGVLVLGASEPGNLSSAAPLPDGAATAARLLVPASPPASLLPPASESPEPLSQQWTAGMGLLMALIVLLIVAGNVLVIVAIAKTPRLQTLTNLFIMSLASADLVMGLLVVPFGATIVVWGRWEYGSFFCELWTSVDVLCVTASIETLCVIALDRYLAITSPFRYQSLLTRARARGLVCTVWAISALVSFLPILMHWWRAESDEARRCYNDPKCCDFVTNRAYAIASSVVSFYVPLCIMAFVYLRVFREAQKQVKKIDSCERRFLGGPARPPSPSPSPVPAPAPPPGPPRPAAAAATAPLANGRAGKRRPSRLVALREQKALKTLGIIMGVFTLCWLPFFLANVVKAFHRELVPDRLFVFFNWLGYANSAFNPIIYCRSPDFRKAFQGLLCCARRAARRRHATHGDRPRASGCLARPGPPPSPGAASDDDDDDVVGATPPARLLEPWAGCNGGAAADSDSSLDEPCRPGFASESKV

DAT, sequence (Q01959 whole entry): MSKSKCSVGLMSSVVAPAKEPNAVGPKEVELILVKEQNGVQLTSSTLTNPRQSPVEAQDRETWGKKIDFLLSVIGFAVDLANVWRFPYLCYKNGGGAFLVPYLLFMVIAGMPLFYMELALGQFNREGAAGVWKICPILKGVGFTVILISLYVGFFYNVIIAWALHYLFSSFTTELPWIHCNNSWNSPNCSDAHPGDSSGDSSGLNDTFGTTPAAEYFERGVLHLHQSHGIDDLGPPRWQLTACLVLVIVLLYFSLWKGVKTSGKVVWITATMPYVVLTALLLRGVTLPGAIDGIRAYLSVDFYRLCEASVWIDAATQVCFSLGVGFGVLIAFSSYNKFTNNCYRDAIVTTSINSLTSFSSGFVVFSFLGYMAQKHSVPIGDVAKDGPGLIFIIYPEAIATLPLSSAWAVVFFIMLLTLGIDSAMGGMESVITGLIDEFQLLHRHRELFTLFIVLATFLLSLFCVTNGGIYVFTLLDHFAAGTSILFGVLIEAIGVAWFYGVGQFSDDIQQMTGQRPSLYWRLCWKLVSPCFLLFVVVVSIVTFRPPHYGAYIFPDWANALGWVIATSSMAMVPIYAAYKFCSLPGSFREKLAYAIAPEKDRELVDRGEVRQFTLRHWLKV
ADORA2A, sequence (P29274 whole entry): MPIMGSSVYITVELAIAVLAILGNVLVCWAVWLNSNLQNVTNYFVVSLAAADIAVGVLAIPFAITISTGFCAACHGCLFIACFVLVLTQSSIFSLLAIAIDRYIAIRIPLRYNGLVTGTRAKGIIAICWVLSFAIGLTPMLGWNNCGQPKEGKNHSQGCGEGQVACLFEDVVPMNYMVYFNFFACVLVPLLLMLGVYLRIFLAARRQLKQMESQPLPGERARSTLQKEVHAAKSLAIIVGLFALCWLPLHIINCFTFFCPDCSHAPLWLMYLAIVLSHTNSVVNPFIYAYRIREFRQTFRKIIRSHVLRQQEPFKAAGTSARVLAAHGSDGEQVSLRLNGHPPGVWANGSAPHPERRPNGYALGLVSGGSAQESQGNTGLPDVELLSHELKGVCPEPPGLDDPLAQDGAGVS
HRH1, sequence (P35367 whole entry): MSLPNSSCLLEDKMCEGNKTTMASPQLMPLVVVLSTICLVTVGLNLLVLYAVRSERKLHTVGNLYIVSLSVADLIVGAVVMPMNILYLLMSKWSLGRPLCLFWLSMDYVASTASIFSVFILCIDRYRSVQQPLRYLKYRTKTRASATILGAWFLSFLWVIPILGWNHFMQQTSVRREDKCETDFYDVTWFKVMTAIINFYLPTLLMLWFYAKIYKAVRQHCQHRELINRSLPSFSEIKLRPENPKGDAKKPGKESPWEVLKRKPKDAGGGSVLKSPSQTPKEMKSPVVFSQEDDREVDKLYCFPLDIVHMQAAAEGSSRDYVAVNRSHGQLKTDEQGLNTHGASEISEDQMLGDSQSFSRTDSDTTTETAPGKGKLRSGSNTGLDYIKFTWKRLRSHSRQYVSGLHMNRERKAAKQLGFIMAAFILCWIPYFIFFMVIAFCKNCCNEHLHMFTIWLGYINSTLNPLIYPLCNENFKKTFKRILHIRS
AChE, sequence (P22303 32-614): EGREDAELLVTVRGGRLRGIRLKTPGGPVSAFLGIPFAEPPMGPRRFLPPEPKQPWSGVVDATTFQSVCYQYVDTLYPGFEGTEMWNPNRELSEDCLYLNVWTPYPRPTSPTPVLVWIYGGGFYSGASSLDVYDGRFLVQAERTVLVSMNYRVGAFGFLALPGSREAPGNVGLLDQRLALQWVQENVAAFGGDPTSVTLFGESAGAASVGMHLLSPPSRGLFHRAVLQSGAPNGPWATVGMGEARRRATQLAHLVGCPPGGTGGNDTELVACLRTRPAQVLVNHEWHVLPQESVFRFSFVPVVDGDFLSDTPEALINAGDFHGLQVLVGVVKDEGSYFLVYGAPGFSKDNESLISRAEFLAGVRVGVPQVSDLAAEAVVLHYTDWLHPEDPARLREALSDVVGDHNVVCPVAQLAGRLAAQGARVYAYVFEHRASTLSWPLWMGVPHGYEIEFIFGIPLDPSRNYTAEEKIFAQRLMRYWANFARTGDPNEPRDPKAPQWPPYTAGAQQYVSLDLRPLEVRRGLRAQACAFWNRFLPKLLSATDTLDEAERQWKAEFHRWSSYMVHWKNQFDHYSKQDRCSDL
PDE3A, sequence (Q14432 whole entry): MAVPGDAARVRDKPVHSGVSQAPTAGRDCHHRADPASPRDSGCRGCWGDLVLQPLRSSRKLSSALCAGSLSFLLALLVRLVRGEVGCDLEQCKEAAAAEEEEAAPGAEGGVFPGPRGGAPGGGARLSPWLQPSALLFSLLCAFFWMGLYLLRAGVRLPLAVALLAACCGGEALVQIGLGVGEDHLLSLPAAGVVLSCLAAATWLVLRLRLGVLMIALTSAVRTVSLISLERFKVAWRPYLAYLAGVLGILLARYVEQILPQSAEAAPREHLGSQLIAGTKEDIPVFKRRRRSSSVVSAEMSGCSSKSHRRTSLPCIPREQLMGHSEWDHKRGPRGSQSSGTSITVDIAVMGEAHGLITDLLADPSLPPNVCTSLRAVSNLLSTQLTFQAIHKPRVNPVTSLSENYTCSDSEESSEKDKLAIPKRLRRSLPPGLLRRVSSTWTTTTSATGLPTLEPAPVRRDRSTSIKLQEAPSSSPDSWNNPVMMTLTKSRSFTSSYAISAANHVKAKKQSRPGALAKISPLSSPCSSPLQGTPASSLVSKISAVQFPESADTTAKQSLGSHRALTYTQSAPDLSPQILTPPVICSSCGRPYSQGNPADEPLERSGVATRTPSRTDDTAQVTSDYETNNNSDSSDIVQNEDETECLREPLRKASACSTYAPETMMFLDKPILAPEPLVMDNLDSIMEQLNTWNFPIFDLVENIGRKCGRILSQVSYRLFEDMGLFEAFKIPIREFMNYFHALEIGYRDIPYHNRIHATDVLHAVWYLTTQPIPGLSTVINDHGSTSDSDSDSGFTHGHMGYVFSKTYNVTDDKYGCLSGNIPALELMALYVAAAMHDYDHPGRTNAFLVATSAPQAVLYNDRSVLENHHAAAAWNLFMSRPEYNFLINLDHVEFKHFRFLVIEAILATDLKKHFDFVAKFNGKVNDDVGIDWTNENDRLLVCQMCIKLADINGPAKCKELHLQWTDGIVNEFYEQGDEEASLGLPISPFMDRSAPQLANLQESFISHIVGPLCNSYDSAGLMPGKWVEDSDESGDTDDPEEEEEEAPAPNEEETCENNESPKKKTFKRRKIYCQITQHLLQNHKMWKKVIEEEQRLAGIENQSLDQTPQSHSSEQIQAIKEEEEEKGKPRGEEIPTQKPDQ
VEGFR2, sequence (P35968 20-1356): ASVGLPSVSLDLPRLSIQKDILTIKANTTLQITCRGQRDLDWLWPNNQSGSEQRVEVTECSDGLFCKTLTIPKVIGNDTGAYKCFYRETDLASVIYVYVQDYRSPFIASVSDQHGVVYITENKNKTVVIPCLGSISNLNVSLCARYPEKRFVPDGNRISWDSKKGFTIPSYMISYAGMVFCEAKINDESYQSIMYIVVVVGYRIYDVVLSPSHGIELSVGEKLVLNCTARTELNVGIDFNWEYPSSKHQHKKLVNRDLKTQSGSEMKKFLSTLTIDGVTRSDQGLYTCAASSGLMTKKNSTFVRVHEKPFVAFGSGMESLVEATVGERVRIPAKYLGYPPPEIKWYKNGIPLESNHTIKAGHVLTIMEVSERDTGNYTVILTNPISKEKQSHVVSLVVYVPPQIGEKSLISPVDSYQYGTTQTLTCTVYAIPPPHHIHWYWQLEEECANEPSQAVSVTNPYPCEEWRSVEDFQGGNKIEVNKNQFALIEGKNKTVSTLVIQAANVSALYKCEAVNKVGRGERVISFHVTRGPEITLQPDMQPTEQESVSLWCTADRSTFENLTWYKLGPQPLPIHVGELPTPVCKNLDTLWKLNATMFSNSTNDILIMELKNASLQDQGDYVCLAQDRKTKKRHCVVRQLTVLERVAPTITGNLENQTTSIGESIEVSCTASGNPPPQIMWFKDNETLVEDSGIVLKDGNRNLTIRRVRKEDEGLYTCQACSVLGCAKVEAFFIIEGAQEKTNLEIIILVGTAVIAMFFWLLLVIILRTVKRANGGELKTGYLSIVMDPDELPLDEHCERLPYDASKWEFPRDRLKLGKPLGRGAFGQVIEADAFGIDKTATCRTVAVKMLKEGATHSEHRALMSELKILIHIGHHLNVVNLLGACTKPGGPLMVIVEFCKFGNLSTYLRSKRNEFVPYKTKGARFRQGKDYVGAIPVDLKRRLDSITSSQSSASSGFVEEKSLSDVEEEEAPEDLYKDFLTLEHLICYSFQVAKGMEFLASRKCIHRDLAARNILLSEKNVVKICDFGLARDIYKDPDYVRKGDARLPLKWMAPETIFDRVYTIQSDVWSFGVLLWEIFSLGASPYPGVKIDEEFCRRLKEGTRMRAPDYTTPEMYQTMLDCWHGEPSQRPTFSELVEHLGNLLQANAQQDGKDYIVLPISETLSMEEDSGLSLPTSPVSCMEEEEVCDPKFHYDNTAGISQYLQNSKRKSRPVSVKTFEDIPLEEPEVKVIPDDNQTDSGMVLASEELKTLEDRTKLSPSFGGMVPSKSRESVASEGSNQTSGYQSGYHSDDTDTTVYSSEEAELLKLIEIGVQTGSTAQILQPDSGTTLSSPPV

Row | SMILES | IC50 [1] [µM] | Emax [1] [%] | EC50 [2] [µM] | Emax [2] [%] | EC50 [3] [µM] | Emax [3] [%] | IC50 [4] [µM] | Emax [4] [%] | change in HPLC trace after proteolysis [5] | IC50 [6] [µM] | Emax [6] [%] | EC50 [7] [µM] | Emax [7] [%] | IC50 [8] [µM] | Emax [8] [%] | IC50 [9] [µM] | Emax [9] [%] | IC50 [10] [µM] | Emax [10] [%] | IC50 [11] [µM] | further results
1 | CC[C@H](C)[C@H](NC(=O)[C@H](CC(C)C)NC(=O)[C@H](CC(=O)O)NC(=O)CNC(=O)[C@H](CCCNC(=N)N)NC(=O)[C@@H](NC(=O)[C@H](Cc1ccccc1)NC(=O)[C@H](Cc1ccc(O)cc1)NC(=O)[C@@H]1CCC(=O)NCC(=O)NCC(=O)N[C@@H](CCCNC(=N)N)C(=O)NCC(=O)N[C@@H](Cc2c[nH]cn2)C(=O)N[C@@H](C(C)C)C(=O)N2CCC[C@H]2C(=O)N1)C(C)C)C(=O)N[C@@H](CO)C(=O)N[C@@H](Cc1ccccc1)C(=O)N[C@@H](Cc1ccc(O)cc1)C(=O)N[C@@H](CCCCN)C(=O)O [lassotide 36] (GGRGHVPEYFVRGDLISFYK-OH; lactam N-8) | > 45 | 6.3 | > 45 | 2.03 | > 45 | 2.01 | > 45 | 0 | little or no change | > 45 | 29.8 | > 45 | 0 | > 45 | 0 | > 45 | 0 | > 45 | 0 | 0.084 | Emax [12]: 0%; IC50 [12]: > 45 µM; IC50 [13]: > 45 µM; Emax [13]: 15.6%
2 | CC[C@H](C)[C@H](NC(=O)[C@H](CC(C)C)NC(=O)[C@H](CC(=O)O)NC(=O)CNC(=O)[C@H](CCCNC(=N)N)NC(=O)[C@@H](NC(=O)[C@H](Cc1ccccc1)NC(=O)[C@H](Cc1ccc(O)cc1)NC(=O)[C@@H]1CCC(=O)NCC(=O)NCC(=O)N[C@@H](CCCNC(=N)N)C(=O)NCC(=O)N[C@@H](Cc2c[nH]cn2)C(=O)N[C@@H](C(C)C)C(=O)N2CCC[C@H]2C(=O)N1)C(C)C)C(=O)N[C@@H](CO)C(=O)N[C@@H](Cc1ccccc1)C(=O)N[C@@H](Cc1ccc(O)cc1)C(=O)N[C@@H](CCCCNC(=O)CCOCCOCCNC(=O)CCCc1ccc(I)cc1)C(=O)O [lassotide 47] (GGRGHVPEYFVRGDLISFYK([PEG2-Butanoyl(4-(4-I-phenyl))])-OH; lactam N-8) | > 45 | 2.92 | > 45 | 0 | > 45 | 0.52 | > 45 | 7.44 | little or no change | > 45 | 13 | > 45 | 0.79 | > 45 | 0 | > 45 | 0.63 | > 45 | 7.88 | 1.23 | Emax [12]: 0%; IC50 [12]: > 45 µM; IC50 [13]: > 45 µM; Emax [13]: 40%
